Source: ChEMBL document CHEMBL5241130, “Integrating a phenotypic screening with a structural simplification strategy to identify 4-phenoxy-quinoline derivatives to potently disrupt the mitotic localization of Aurora kinase B” (Bioorg Med Chem, 2023)
Calls of active or inactive are those of the source. The rule behind the calls is not given here.

Columns and labels:
[1] = target: Aurora kinase B (Homo sapiens) (UniProt Q96GD4); test: Disruption of mitotic localization of AURKB in human RPE-MYC H2B-GFP cells assessed as induction of mitotic arrest measured after 24 hrs by fluorescence high content cell imaging analysis; type: cell-based
Sequence of Aurora kinase B (Homo sapiens) (Q96GD4 whole entry): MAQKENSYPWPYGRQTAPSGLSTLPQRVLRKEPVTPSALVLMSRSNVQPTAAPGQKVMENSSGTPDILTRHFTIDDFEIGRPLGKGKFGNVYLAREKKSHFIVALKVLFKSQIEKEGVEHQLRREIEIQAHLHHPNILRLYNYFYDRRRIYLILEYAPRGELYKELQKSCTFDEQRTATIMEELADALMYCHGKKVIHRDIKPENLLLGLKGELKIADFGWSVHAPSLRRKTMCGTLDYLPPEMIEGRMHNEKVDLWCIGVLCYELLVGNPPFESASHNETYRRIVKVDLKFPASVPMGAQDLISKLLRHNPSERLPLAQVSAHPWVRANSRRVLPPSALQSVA

[2] = target: Aurora kinase B (Homo sapiens) (UniProt Q96GD4); test: Disruption of mitotic localization of AURKB in human RPE-MYC H2B-GFP cells assessed as induction of polyploidy by fluorescence high content cell imaging analysis; type: cell-based
[3] = target: Aurora kinase B (Homo sapiens) (UniProt Q96GD4); test: Disruption of mitotic localization of AURKB in human RPE-MYC cells expressing BCL2 assessed as disruption of MKLP1 localization at spindle mid-zone at 40 nM measured after 6 hrs by immunofluorescence staining analysis; type: cell-based
A549 = test: Cytotoxicity against human A549 cells assessed as cell growth inhibition incubated for 3 days by MTT assay; type: functional, cell-based; conditions: time 3.0 day
[4] = target: Aurora kinase B (Homo sapiens) (UniProt Q96GD4); test: Disruption of mitotic localization of AURKB at the spindle mid-zone and equatorial cortex in human RPE-MYC cells expressing BCL2 at 40 nM measured after 6 hrs by immunofluorescence staining analysis; type: cell-based
[5] = target: Aurora kinase B (Homo sapiens) (UniProt Q96GD4); test: Disruption of mitotic localization of AURKB in human RPE-MYC H2B-GFP cells assessed as induction of mitotic arrest by fluorescence high content cell imaging analysis; type: cell-based
MDA-MB-231 = test: Cytotoxicity against human MDA-MB-231 cells assessed as cell growth inhibition incubated for 3 days by MTT assay; type: functional, cell-based; conditions: time 3.0 day
[6] = target: Aurora kinase B (Homo sapiens) (UniProt Q96GD4); test: Disruption of mitotic localization of AURKB in human RPE-MYC cells expressing BCL2 assessed as disruption of PLK1 localization at spindle mid-zone at 40 nM measured after 6 hrs by immunofluorescence staining analysis; type: cell-based
NCI-N87 = test: Cytotoxicity against human NCI-N87 cells assessed as cell growth inhibition incubated for 3 days by MTT assay; type: functional, cell-based; conditions: time 3.0 day
HCT-116 = test: Cytotoxicity against human HCT-116 cells assessed as cell growth inhibition incubated for 3 days by MTT assay; type: functional, cell-based; conditions: time 3.0 day
NCI-H23 = test: Cytotoxicity against human NCI-H23 cells assessed as cell growth inhibition incubated for 3 days by MTT assay; type: functional, cell-based; conditions: time 3.0 day
[7] = target: Aurora kinase B (Homo sapiens) (UniProt Q96GD4); test: Inhibition of AURKB in human RPE-MYC H2B-GFP cells assessed as inhibition of histone H3 phosphorylation at Ser10 residue at 8XMEC measured after 6 hrs by immunofluorescence staining analysis; type: cell-based
HeLa = test: Cytotoxicity against human HeLa cells assessed as cell growth inhibition incubated for 3 days by MTT assay; type: functional, cell-based; conditions: time 3.0 day
SW480 = test: Cytotoxicity against human SW480 cells assessed as cell growth inhibition incubated for 3 days by MTT assay; type: functional, cell-based; conditions: time 3.0 day
[8] = target: T1, Aurora kinase A (Homo sapiens) (UniProt O14965); test: Inhibition of AURKA in human RPE-MYC H2B-GFP cells assessed as inhibition of autophosphorylation of AURKA at Thr288 residue at 8XMEC measured after 6 hrs by immunofluorescence staining analysis; type: cell-based
T1 sequence (whole entry): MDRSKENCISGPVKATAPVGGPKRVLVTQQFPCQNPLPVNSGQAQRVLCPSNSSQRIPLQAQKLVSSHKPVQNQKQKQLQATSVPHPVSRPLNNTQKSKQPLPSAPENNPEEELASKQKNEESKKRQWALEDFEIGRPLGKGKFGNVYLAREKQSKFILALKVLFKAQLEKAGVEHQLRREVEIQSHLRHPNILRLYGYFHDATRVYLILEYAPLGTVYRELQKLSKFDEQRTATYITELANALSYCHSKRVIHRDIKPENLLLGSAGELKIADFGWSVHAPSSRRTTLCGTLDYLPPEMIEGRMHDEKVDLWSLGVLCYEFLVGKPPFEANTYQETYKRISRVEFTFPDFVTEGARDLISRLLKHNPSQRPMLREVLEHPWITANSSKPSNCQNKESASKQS

[9] = target: Aurora kinase B (Homo sapiens) (UniProt Q96GD4); test: Disruption of mitotic localization of AURKB in human RPE-MYC H2B-GFP cells assessed as induction of polyploidy by fluorescence high content cell imaging analysis relative to control; type: cell-based
[10] = target: T1, Aurora kinase A (Homo sapiens); test: Inhibition of AURKA in human RPE-MYC H2B-GFP cells assessed as inhibition of autophosphorylation of AURKA at Thr288 residue by measuring residual enzyme activity at 0.156 uM measured after 6 hrs by immunofluorescence staining analysis (reference value: 100 +/-1%); type: cell-based
[11] = target: Aurora kinase B (Homo sapiens) (UniProt Q96GD4); test: Disruption of mitotic localization of AURKB in human RPE-MYC H2B-GFP cells assessed as proportion of polyploid cells in fully attached cell population at 0.078 uM measured after 48 hrs by fluorescence high content cell imaging analysis (Rvb <1%); type: cell-based
[12] = target: Aurora kinase B (Homo sapiens) (UniProt Q96GD4); test: Disruption of mitotic localization of AURKB in human RPE-MYC H2B-GFP cells assessed as mitotic index at 0.156 uM measured after 6 hrs by fluorescence high content cell imaging analysis (reference value: 4.7+/-0.4%); type: cell-based
[13] = target: Aurora kinase B (Homo sapiens) (UniProt Q96GD4); test: Inhibition of AURKB in human RPE-MYC H2B-GFP cells assessed as inhibition of histone H3 phosphorylation at Ser10 residue by measuring residual enzyme activity at 0.078 uM measured after 6 hrs by immunofluorescence staining analysis (reference value: 100 +/-9%); type: cell-based
[14] = target: Aurora kinase B (Homo sapiens) (UniProt Q96GD4); test: Inhibition of AURKB in human RPE-MYC H2B-GFP cells assessed as inhibition of histone H3 phosphorylation at Ser10 residue by measuring residual enzyme activity at 0.312 uM measured after 6 hrs by immunofluorescence staining analysis (reference value: 100 +/-9%); type: cell-based
[15] = target: Aurora kinase B (Homo sapiens) (UniProt Q96GD4); test: Disruption of mitotic localization of AURKB in human RPE-MYC H2B-GFP cells assessed as proportion of polyploid cells in fully attached cell population at 0.156 uM measured after 48 hrs by fluorescence high content cell imaging analysis (Rvb <1%); type: cell-based
[16] = target: T1, Aurora kinase A (Homo sapiens); test: Inhibition of AURKA in human RPE-MYC H2B-GFP cells assessed as inhibition of autophosphorylation of AURKA at Thr288 residue by measuring residual enzyme activity at 0.078 uM measured after 6 hrs by immunofluorescence staining analysis (reference value: 100 +/-1%); type: cell-based
[17] = target: Aurora kinase B (Homo sapiens) (UniProt Q96GD4); test: Inhibition of AURKB in human RPE-MYC H2B-GFP cells assessed as inhibition of histone H3 phosphorylation at Ser10 residue by measuring residual enzyme activity at 0.156 uM measured after 6 hrs by immunofluorescence staining analysis (reference value: 100 +/-9%); type: cell-based
[18] = target: Aurora kinase B (Homo sapiens) (UniProt Q96GD4); test: Disruption of mitotic localization of AURKB in human RPE-MYC H2B-GFP cells assessed as proportion of polyploid cells in fully attached cell population at 0.312 uM measured after 48 hrs by fluorescence high content cell imaging analysis (Rvb <1%); type: cell-based
[19] = target: Aurora kinase B (Homo sapiens) (UniProt Q96GD4); test: Disruption of mitotic localization of AURKB in human RPE-MYC H2B-GFP cells assessed as mitotic index at 0.078 uM measured after 6 hrs by fluorescence high content cell imaging analysis (reference value: 4.7+/-0.4%); type: cell-based
[20] = target: T1, Aurora kinase A (Homo sapiens); test: Inhibition of AURKA in human RPE-MYC H2B-GFP cells assessed as inhibition of autophosphorylation of AURKA at Thr288 residue by measuring residual enzyme activity at 0.312 uM measured after 6 hrs by immunofluorescence staining analysis (reference value: 100 +/-1%); type: cell-based
[21] = target: Aurora kinase B (Homo sapiens) (UniProt Q96GD4); test: Disruption of mitotic localization of AURKB in human RPE-MYC H2B-GFP cells assessed as mitotic index at 0.312 uM measured after 6 hrs by fluorescence high content cell imaging analysis (reference value: 4.7+/-0.4%); type: cell-based

MEC [1] [µM]	MEC [2] [µM]	SMILES	other results
0.078	0.078	COc1cc(NC(C)=O)cc(Oc2ccnc3ccccc23)c1	–
10	10	CC(=O)c1cccc(Oc2ccnc3ccccc23)c1	–
0.012	0.012	COc1cc(Oc2ccnc3ccc(OC)cc23)cc(-n2cccn2)c1	Activity [3]: Active; Activity (A549): Active; Activity [4]: Active; Activity [5]: inactive; Activity (MDA-MB-231): Active; Activity [6]: Active; Activity (NCI-N87): Active; Activity (HCT-116): Active; Activity (NCI-H23): Active; inhibition [7]: < 40%; Activity (HeLa): Active; Activity (SW480): Active; inhibition [8]: < 40%; Activity [9]: 100%
5	5	COc1cccc(Oc2ccnc3ccccc23)c1	–
0.078	0.078	COc1cc(Oc2ccnc3ccccc23)cc(-n2cccn2)c1	–
1.25	1.25	COc1cc(Oc2ccnc3ccccc23)cc(C(F)(F)F)c1	–
0.625	0.625	COc1cc(NC(C)=O)cc(Oc2ccnc3cc(OC)c(C(N)=O)cc23)c1	–
10	10	COC(=O)c1cccc(Oc2ccnc3ccccc23)c1	–
> 40	> 40	O=Cc1cccc(Oc2ccnc3ccccc23)c1	–
40	40	Nc1cccc(Oc2ccnc3ccccc23)c1	–

The remaining lines, values behind:

SMILES	MEC [1] [µM]	MEC [2] [µM]	other results
c1ccc(Oc2ccnc3ccccc23)cc1	> 40	> 40	–
COC(=O)c1cc(OC)cc(Oc2ccnc3ccccc23)c1	0.02	0.02	–
O=C(NC1CCCC1)c1cccc(Oc2ccnc3ccccc23)c1	> 40	> 40	–
CCOC(=O)c1cccc(Oc2ccnc3ccccc23)c1	10	10	–
COC(=O)c1ccc(Oc2ccnc3ccccc23)cc1	40	40	–
COc1cc(Oc2ccnc3cc(OC)ccc23)cc(-n2cccn2)c1	5	5	–
COc1cc(Oc2ccnc3ccccc23)cc(-c2nc(C)no2)c1	0.625	0.625	–
Cc1csc(-c2nnc(Nc3ccc(Oc4ccnc5ccccc45)cc3)c3ccccc23)c1	–	–	Activity [10]: 100%; Activity [11]: 100%; Activity [12]: 9.8%; Activity [13]: 98%; Activity [14]: 0%; Activity [15]: 100%; Activity [16]: 100%; Activity [17]: 21.4%; Activity [18]: 100%; Activity [19]: 11%; Activity [20]: 100%; Activity [21]: 10.1%
COC(=O)c1cc2c(Oc3cc(OC)cc(-n4cccn4)c3)ccnc2cc1OC	0.039	0.078	–
COC(=O)c1ccc(OC)c(Oc2ccnc3ccccc23)c1	0.625	0.625	–
COc1cc(Oc2ccnc3ccccc23)cc(C(=O)O)c1	> 40	> 40	–
COc1ccc(Oc2ccnc3ccccc23)cc1	> 40	> 40	–
COc1cc(Oc2ccnc3cc(Cl)ccc23)cc(-n2cccn2)c1	20	20	–
CNC(=O)c1cc(OC)cc(Oc2ccnc3ccccc23)c1	0.625	1.25	–
COc1cc(Oc2ccnc3cc(OC)c(OC)cc23)cc(-n2cccn2)c1	0.012	0.012	Activity [3]: Active; Activity (A549): Active; Activity [4]: Active; Activity [5]: inactive; Activity (MDA-MB-231): Active; Activity [6]: Active; Activity (NCI-N87): Active; Activity (HCT-116): Active; Activity (NCI-H23): Active; inhibition [7]: < 40%; Activity (HeLa): Active; Activity (SW480): Active; inhibition [8]: < 40%; Activity [9]: 100%
COc1cc(Oc2ccnc3cc(C(F)(F)F)ccc23)cc(-n2cccn2)c1	> 40	> 40	–
COc1cc(OC)cc(Oc2ccnc3ccccc23)c1	0.078	0.078	–
COC(=O)c1cc2c(Oc3cc(NC(C)=O)cc(OC)c3)ccnc2cc1OC	1.25	1.25	–
COc1cc(NC(C)=O)cc(Oc2ccnc3cc(OC)c(OC)cc23)c1	0.039	0.078	–
COc1cc(NC(C)=O)cc(Oc2ccnc3ccc(F)cc23)c1	0.01	0.01	Activity [3]: Active; Activity (A549): Active; Activity [4]: Active; Activity [5]: inactive; Activity (MDA-MB-231): Active; Activity [6]: Active; Activity (NCI-N87): Active; Activity (HCT-116): Active; Activity (NCI-H23): Active; inhibition [7]: < 40%; Activity (HeLa): Active; Activity (SW480): Active; inhibition [8]: < 40%; Activity [9]: 100%
COc1cc(Oc2ccnc3ccc(F)cc23)cc(-n2cccn2)c1	0.052	0.052	–
